Results: patent US20140221468A1, “Compounds that Modulate Store Operated Calcium Channels” (The Board of Trustees of the Leland Stanford Junior …, priority 2010, published 2014)

Experiments:
SOC [1] = assay: NFAT coupled luciferase assay (NFAT-luc) for functional inhibition of SOC; type: cell-based; details: Jurkat T cells pretreated 30 minutes, activated by thapsigargin (TG) and PMA; read-out: EC50, NFAT-luc assay dose response
Experimental: To evaluate the ability of these compounds to inhibit SOC, a NFAT coupled luciferase assay was utilized as a functional secondary screen (FIG. 2A). This assay allows the monitoring of the IL2 promoter dependent production of luciferase that is directly activated by SOC through dephosphorylation of NFAT in T lymphocytes. This assay requires treatment of PMA, a PKC agonist, in parallel with SOC activation. Jurkat T cells were pretreated with each of the 51 compounds for 30 minutes and then activated by treatment of thapsigargin (TG) and PMA. TG depletes the ER stores by inhibiting the SERCA pumps that are responsible for refilling these stores with calcium. This process in turn activates SOC currents.
Fifty one compounds identified in the binding assay were tested by NFAT-luc assay to evaluated their SOC inhibitory properties (top). Renilla-luc was also monitored as an internal control of viability of the cells (bottom).
To further examine the hits produced from the secondary luciferase screen, four compounds AnCoA4, AnCoA5, AnCoG4, and AnCoF6 were selected (FIGS. 2B, C, D). The Dose response curve calculated from FIG. 2B is shown in FIG. 2C with a calculated EC50 equal to 0.9 μM.

SOC [2] = assay: Fura2-AM calcium imaging in HEK293 cells; type: cell-based; details: for effect on intracellular calcium levels, post SOC activation treatment: applied after ER store depletion, at minute 510 of imaging
Experimental: Calcium imaging was utilized for further characterization of the compounds and analogs. Using Fura2-AM, a known ratiometric calcium indicator, SOC dependent intracellular calcium rise and lack thereof was measured after treatment of our compounds (FIG. 3A-B). […] 1 minute before treatment of Thapsigargin.
This observation was in line with the previous luciferase assays and confirmed the ability of these compounds to inhibit SOC.
LaCl, a general blocker of divalent channels, was also used as a comparison for the post treatment experiment. […] HEK293 cells were treated with DMSO (black), LaCl at 1 uM (red), AnCoA4 at 50 uM (orange), and BiochaninA at 50 uM (green) at minute 510 of the calcium imaging. The intracellular calcium levels quickly drop after LaCl treatment whereas the compound treatment had no effect on the calcium levels.imaging.

jurkat T lymphocytes = assay: qRT PCR of T and B lymphocyte activating genes in jurkat T lymphocytes; type: cell-based, human
Experimental: The ability of AnCoA4 to inhibit activation of jurkat T lymphocytes was investigated (FIG. 4A). As IL2 gene production was previously investigated indirectly using a luciferase assay, the production of 83 more genes was monitored using real time quantitative PCR (qRT PCR). […] Jurkat T cells were treated with DMSO and AnCoA4 30 minutes before activation with PHA. Total RNA was extracted after 4 hours. […] Cells were pretreated with AnCoA4 30 minutes before activation with PHA or thapsigargin plus PMA for various time length of activation.
The ability of the AnCoA4 alone for independent up regulation of IL2 gene was also tested and no effects were observed.

[3] = 50 uM pretreatment for 30 minutes, then PHA activation, qRT PCR

Row | EC50 (SOC [1]) | SMILES | SOC dependent intracellular calcium influx, pretreatment (SOC [2]; 50 uM, 1 minute before thapsigargin) | effect on intracellular calcium levels, post SOC activation treatment (SOC [2]; 50 uM) | CCL4 down regulation (jurkat T lymphocytes; [3]) | IL2 down regulation (jurkat T lymphocytes; [3]) | mRNA levels for most genes in comparison with the control sample (jurkat T lymphocytes; 84 genes, 50 uM pretreatment for 30 minutes, then PHA activation) | independent up regulation of IL2 gene by compound alone (jurkat T lymphocytes; compound alone, without activation) | effect on intracellular calcium levels, post SOC activation treatment (SOC [2]; 1 uM)
1 | 0.9 µM | COc1cc2c(cc1-c1coc3c4c(ccc3c1=O)OC(C)(C)C=C4)OCO2 [AnCoA4] | significantly reduced | no effect | ~180 folds | about 6 folds | significantly lower | no effects | 
2 |  | COc1ccc(-c2coc3cc(O)cc(O)c3c2=O)cc1 [BiochaninA] |  | no effect |  |  |  |  | 
3 |  | [Cl][La]([Cl])[Cl] [LaCl, reference compound] |  |  |  |  |  |  | quickly drop
